Data taken from US7494996B2 (priority 2000, dated 2009).

How the values were obtained:
[1] = test system: Sphaerotheca fuliginea; test: Cucumber Powdery Mildew (CPM) protectant test in the greenhouse; assay type: in vivo; conditions: 300 g/ha, 100 is total disease control, 0 is no disease control
Procedure: Plants used in the fungicide testing program were grown in 2-¼-inch (5.7-cm). square pots containing RediEarth propagation substrate. The plants were raised under greenhouse conditions. The rice plants were 12-days-old and cucumbers were 13-days-old at the time of spraying with chemical treatments.
The sample of the experimental chemical was weighed and dissolved in an acetone-methanol-water solution (A/M/W at 1:1:2 ratio by volume).
After sprayer calibration, the test solutions were poured into the fungicide sprayer. The fungicide sprayer contains three spray nozzles, located approximately 10 cm above and to the sides of the plants. The spray produced by the nozzles results in uniform coverage of both the upper and lower parts of the plant leaves. After spraying, the treated plants were placed in a drying chamber for 4 hours, prior to sorting.
Cucumber Powdery Mildew (CPM), caused by the fungus Sphaerotheca fuliginea, was maintained on large cucumber plants. For inoculum preparation, five to eight leaves depending on size, completely covered with powdery mildew spores, were collected. The leaves were placed in a glass jar and covered with 500 ml of water, containing 5 drops of Tween-80. The material was filtered through two layers of cheesecloth to remove leaf fragments. The spore count was adjusted to 2×10^5 spores per ml.
Cucumber plants, cv. “Bush Champion,” were used for this test. The plants were thinned to one per pot after the cotyledons were fully developed. Two days before the test, the small leaves and meristem region were removed, leaving only the cotyledons and one large true leaf.
The protectant tests required that the cucumber plants be inoculated 1 day after spraying with the chemical treatment. The plants were inoculated with a hand-held spray bottle with the suspension of fungal spores. The leaves were lightly misted on the upper surface from two different spray directions. Disease development occurred in the greenhouse.
After seven days, the plants were evaluated for percent of disease control. The results are reported as percent control; 100 is total disease control, 0 is no disease control.

[2] = test system: Pyricularia oryzae; test: whole plant or invertebrate; assay type: in vivo; conditions: protectant, 300 g/ha, greenhouse; 100 is total disease control, 0 is no disease control

SMILES | Cucumber Powdery Mildew (CPM) protectant fungicide data, percent control [1] [percent control] | Rice Blast (RB) protectant fungicide data, percent control [2] [percent control]
CCOCCN1N=C(c2cc(Cl)cc(Cl)c2)NCC1=O [Compound 108] | 85 | 90
O=C1CNC(c2cccc(Cl)c2)=NN1c1ccccc1 [Compound 111] | 90 | 85
C=COC(=O)N1CC(=O)N(CC(F)(F)F)N=C1c1cc(Cl)cc(Cl)c1 [Compound 113] | 75 | 99
CCCCN1N=C(c2cccc(OC)c2)NCC1=O [Compound 114] | 0 | 75
CCCCN1N=C(c2cccc(C(F)(F)F)c2)NCC1=O [Compound 115] | 50 | 100
CCCCN1N=C(c2ccc(OCC)cc2)NCC1=O [Compound 116] | 0 | 85
CCCCN1N=C(c2ccc(C(F)(F)F)cc2)NCC1=O [Compound 117] | 0 | 90
CCCCN1N=C(c2cc(Cl)cc(Cl)c2)N(C(=O)OCOC(C)=O)CC1=O [Compound 118] | 0 | 90
CCCCN1N=C(c2ccc3ccccc3c2)NCC1=O [Compound 119] | 0 | 99
CCCCN1N=C(c2cc(Br)c(OC)c(Br)c2)NCC1=O [Compound 120] | 0 | 80
CCCCN1N=C(c2c(Cl)cncc2Cl)NCC1=O [Compound 121] | 0 | 80
CN1N=C(c2ccc(C(F)(F)F)cc2)NCC1=O [Compound 122] | 75 | 75
O=C1CNC(c2ccc3ccccc3c2)=NN1 [Compound 124] | 0 | 75
CCOC(=O)CN1N=C(c2ccc(F)c(F)c2)NCC1=O [Compound 125] | 50 | 50
O=C1CN(CCCl)C(c2cc(Cl)cc(Cl)c2)=NN1CC(F)(F)F [Compound 126] | 0 | 50
C=CCN1N=C(c2cc(Cl)cc(Cl)c2)NCC1=O [Compound 128] | 0 | 90
CCCCN1N=C(c2cc(Cl)cc(Cl)c2)N(C(=O)SC)CC1=O [Compound 129] | 75 | 50
CCCCN1N=C(c2cc(Cl)cc(Cl)c2)N(C(=O)OC)CC1=O [Compound 130] | 0 | 50
C#CCN1CC(=O)N(CCCC)N=C1c1cc(Cl)cc(Cl)c1 [Compound 131] | 75 | 80
C=CCOC(=O)N1CC(=O)N(CCCC)N=C1c1cc(Cl)cc(Cl)c1 [Compound 132] | 50 | 85
C=CCOC(=O)N1CC(=O)N(CC(F)(F)F)N=C1c1cc(Cl)cc(Cl)c1 [Compound 134] | 50 | 80
C=COC(=O)N1CC(=O)N(CCCC)N=C1c1cccc(Cl)c1Cl [Compound 136] | 80 | 100

SMILES | Cucumber Powdery Mildew (CPM) protectant fungicide data, percent control [1] [percent control] | Rice Blast (RB) protectant fungicide data, percent control [2] [percent control]
C=CC(=O)N1CC(=O)N(CC(F)(F)F)N=C1c1cc(Cl)cc(Cl)c1 [Compound 137] | 0 | 85
C=CC(=O)N1CC(=O)N(CCCC)N=C1c1cc(Cl)cc(Cl)c1 [Compound 138] | 0 | 99
O=C1CNC(c2ccc(F)c(F)c2)=NN1Cc1ccccc1 [Compound 139] | 50 | 99
O=C1CNC(c2ccco2)=NN1CC(F)(F)F [Compound 140] | 50 | 0
O=C1CNC(c2cnc3ccccc3c2)=NN1CC(F)(F)F [Compound 141] | 50 | 85
O=C1CNC(c2ccc(-c3ccc([N+](=O)[O-])cc3)cc2)=NN1CC(F)(F)F [Compound 142] | 0 | 80
O=C1CNC(c2ccc3ccccc3c2)=NN1CC(F)(F)F [Compound 143] | 50 | 98
O=C1CNC(c2ccc(-c3csnn3)cc2)=NN1CC(F)(F)F [Compound 144] | 0 | 85
CCCOc1ccc(C2=NN(CC(F)(F)F)C(=O)CN2)cc1 [Compound 145] | 0 | 90
O=C1CNC(c2ccc(-c3ccccc3)cc2)=NN1CC(F)(F)F [Compound 146] | 85 | 95
CSc1ccc(C2=NN(CC(F)(F)F)C(=O)CN2)cc1 [Compound 147] | 0 | 98
CCCN1N=C(c2ccc(F)cc2)NCC1=O [Compound 148] | 80 | 80
O=C1CNC(c2ccc(F)cc2)=NN1CC(F)(F)F [Compound 149] | 75 | 95
CCc1ccc(C2=NN(CC(F)(F)F)C(=O)CN2)cc1 [Compound 150] | 50 | 100
O=C1CNC(c2cccc(C(F)(F)F)c2)=NN1CC(F)(F)F [Compound 153] | 0 | 100
Cc1cccc(C2=NN(CC(F)(F)F)C(=O)CN2)c1 [Compound 154] | 75 | 0
CCCCOc1ccc(C2=NN(CC(F)(F)F)C(=O)CN2)cc1 [Compound 155] | 85 | 90
CN1N=C(c2ccc(Oc3ccccc3)cc2)NCC1=O [Compound 156] | 0 | 85
Cc1cc(C2=NN(CC(F)(F)F)C(=O)CN2)ccc1[N+](=O)[O-] [Compound 157] | 0 | 98
COc1c(Br)cc(C2=NN(CC(F)(F)F)C(=O)CN2)cc1Br [Compound 158] | 0 | 85
O=C1CNC(c2c(Cl)cncc2Cl)=NN1CC(F)(F)F [Compound 159] | 0 | 85
